In brackets after ≈: the same amount, converted by molar mass.
Assays:
Format in all cases: cell-based
E. coli ATCC 11229 = assay: in vitro agar Petri dish dilution test, E. coli ATCC 11229; settings: Escherichia coli, ATCC11229, 100% growth inhibition
Excerpt: (§1) The compound has antimicrobial utility.

B. subtilis = assay: in vitro agar Petri dish dilution test, B. subtilis; settings: Bacillus subtilis, 100% growth inhibition
Excerpt: as §1

P. pullulans = assay: in vitro agar Petri dish dilution test, P. pullulans; settings: 100% growth inhibition
Excerpt: as §1

[1] = tested on: K. pneumoniae M-1 Midland Hospital; assay: in vitro agar Petri dish dilution test, K. pneumoniae M-1 Midland Hospital; settings: Klebsiella pneumoniae, 100% growth inhibition
Excerpt: as §1

C. albicans = assay: in vitro agar Petri dish dilution test, C. albicans; settings: Candida albicans, 100% growth inhibition
Excerpt: as §1

C. pelliculosa = assay: in vitro agar Petri dish dilution test, C. pelliculosa; settings: Hansenula anomala, 100% growth inhibition
Excerpt: as §1

Torulopsis Species = assay: in vitro agar Petri dish dilution test, Torulopsis Species; settings: 100% growth inhibition
Excerpt: as §1

P. aeruginosa = assay: in vitro agar Petri dish dilution test, P. aeruginosa; settings: Pseudomonas aeruginosa, 100% growth inhibition
Excerpt: as §1

A. fumigatus = assay: in vitro agar Petri dish dilution test, A. fumigatus; settings: Aspergillus fumigatus, 100% growth inhibition
Excerpt: as §1

[2] = tested on: Trichoderm Sp. Madison P-42; assay: in vitro agar Petri dish dilution test, Trichoderm Sp. Madison P-42; settings: 100% growth inhibition
Excerpt: as §1

C. albicans NIH = assay: in vitro agar Petri dish dilution test, C. albicans NIH; settings: Candida albicans, 100% growth inhibition
Excerpt: as §1

A. niger = assay: in vitro agar Petri dish dilution test, A. niger; settings: Aspergillus niger, 100% growth inhibition
Excerpt: as §1

T. mentagrophytes = assay: in vitro agar Petri dish dilution test, T. mentagrophytes; settings: Trichophyton mentagrophytes, 100% growth inhibition
Excerpt: as §1

P. chrysogenum = assay: in vitro agar Petri dish dilution test, P. chrysogenum; settings: Penicillium chrysogenum, 100% growth inhibition
Excerpt: as §1

S. aureus = assay: in vitro agar Petri dish dilution test, S. aureus; settings: Staphylococcus aureus, 100% growth inhibition
Excerpt: as §1

S. marcescens NIH = assay: in vitro agar Petri dish dilution test, S. marcescens NIH; settings: Serratia marcescens, 100% growth inhibition
Excerpt: as §1

SMILES: N#CC=CS(=O)(=O)c1ccc(OC(F)(F)C(Cl)Cl)cc1 [3-((4-(2,2-Dichloro-1,1-difluoroethoxy)phenyl)sulfonyl)-2-propenenitrile]
- MIC (E. coli ATCC 11229): 50 µg/mL (≈ 146 µM)
- MIC (B. subtilis): 1 µg/mL (≈ 2.92 µM)
- MIC (P. pullulans): 50 µg/mL (≈ 146 µM)
- MIC [1]: 100 µg/mL (≈ 292 µM)
- MIC (C. albicans): 50 µg/mL (≈ 146 µM)
- MIC (C. pelliculosa): 10 µg/mL (≈ 29.2 µM)
- MIC (Torulopsis Species): 50 µg/mL (≈ 146 µM)
- MIC (P. aeruginosa): 100 µg/mL (≈ 292 µM)
- MIC (A. fumigatus): 50 µg/mL (≈ 146 µM)
- MIC [2]: 100 µg/mL (≈ 292 µM)
- MIC (C. albicans NIH): 50 µg/mL (≈ 146 µM)
- MIC (A. niger): 10 µg/mL (≈ 29.2 µM)
- MIC (T. mentagrophytes): 10 µg/mL (≈ 29.2 µM)
- MIC (P. chrysogenum): 10 µg/mL (≈ 29.2 µM)
- MIC (S. aureus): 5 µg/mL (≈ 14.6 µM)
- MIC (S. marcescens NIH): 50 µg/mL (≈ 146 µM)
